Laboratory results from publication PMC9698201, “Factors Affecting Cellular Uptake of Anthocyanins: The Role of pH, Glucose and Anthocyanin Structure” (Nutrients, 2022).
Values belong to the compound of their own block, whether it stands above or below them.

Tests used:
[1] = set-up: method as in PMID 18211024; conditions: strawberries containing 222 µmol pelargonidin-3-O-glucoside ingested; cited from earlier work
[2] = test system: Caco-2 cells; assay: Uptake experiment, anthocyanins taken up by cells quantified by HPLC; type: in vitro ADME, human; conditions: for uptake reduction in the presence of glucose: 20 µM red grape anthocyanin extract, 1 mM glucose vs control without glucose; for increase in uptake with decreasing pH from 7 to 6.5: 10 µM strawberry anthocyanins; for Normalised Uptake (%): extrapolated to initial amount 10 µg/10 mL, intercept set at zero; for Uptake (%): 1 h, % of initial concentration
Description: Caco-2 cells were seeded at a density of 5 × 10^5 cells in a Petri dish of 10 cm diameter with a volume of 10 mL, containing DMEM supplemented with 10% FBS, 1% NEAA and 1% penicillin and streptomycin. […] Caco-2 cells were used between passages 65–76. The medium was changed every 2–3 days. On day 14, the cells were ready for the uptake experiment. Prior to the study, the medium were removed, and the cells were rinsed with PBS.
The effect of anthocyanin structure was examined using anthocyanin extract from strawberry at 10 and 20 µM while the effect of glucose was performed at 20 µM red grape anthocyanin extract in the presence of 1 mM glucose. Additionally, 10 µM strawberry anthocyanins at pH 6.5 and 7 was used to examine the effect of pH on anthocyanin uptake.
Briefly anthocyanin stock solution was diluted to a final concentration of 10 or 20 µM in DPBS. The anthocyanins (10 mL) were immediately added to the cells, and subsequently incubated at 37 °C for 1h. Following the incubation, DPBS containing anthocyanins was removed and the cells were washed with PBS three times. The anthocyanins taken up by the cells were extracted with 6% formic acid and scraped off for collection. The extract along with the scraped cells were then sonicated, followed by centrifugation at 4 °C, 1700× g for 10 min. The supernatant was filtered and dried under nitrogen. The dry anthocyanins were redissolved in 200 µL of aqueous formic acid containing 10% acidified methanol, and then filtered into the insert prior to HPLC analysis.
HPLC was used to identify and quantify anthocyanins present in juices and cellular extract following the uptake experiment. Anthocyanin standards and their standard curves were used to identify and quantify different anthocyanin structure present in juices and cellular extracts by determining their area under curve. The analysis was performed using an Agilent 1200 series HPLC with quaternary pump and diode array UV-visible detector. Sample (50 µL) was injected onto a reverse phase column of Nova-pak@C18 4 µm, with dimensions of 4.6 × 250 mm (Waters) equipped with a guard column. The mobile phases were 1% aqueous formic acid as solvent A and acetonitrile as solvent B. The flow rate was 1 mL/min with a column temperature of 35 °C. […] Solvent B was maintained at 100% for 5 min, and returned to 100% solvent A and 0% solvent B at 60 min. Wavelengths of 280 and 520 nm were chosen to detect the anthocyanins.

[3] = Anthocyanin stability during 1 h incubation at pH 7 and 6.5; type: physicochemical
Description: To assess degradation due to the pH, strawberry juice extract was incubated under the same conditions in the absence of the cells (Figure 3II). […] Anthocyanins can form additional compounds important for copigmentation with phenolic acids and can form pyranoanthocyanins.
The increased uptake with decreasing pH may be linked to the anthocyanins stability and indicate the involvement of pH dependent transport mechanisms involving a proton co-transporter.

[4] = Extrapolation of Caco-2 uptake to jejunum uptake and blood/plasma concentration; conditions: absorption of 0.88 mg, assuming 5 litres of blood
[5] = strawberry anthocyanins at 10 µM, initial amount Cn 1.91, Pg 45.69, Pg-rham 14.50 µg/10 mL
[6] = strawberry anthocyanins at 20 µM, initial amount Cn 3.89, Pg 95.23, Pg-rham 29.59 µg/10 mL

Compound: pelargonidin-O-glucuronide
- peak plasma concentration [1]: 274 ± 24 nM
- time of peak plasma concentration [1]: 1.1 ± 0.4 h

Compound: COc1cc(-c2[o+]c3cc(O)cc(O)c3cc2O[C@@H]2O[C@H](CO)[C@@H](O)[C@H](O)[C@H]2O)cc(OC)c1O [malvidin-3-glucoside]
- uptake reduction in the presence of glucose [2]: 69–72%

Compound: OC[C@H]1O[C@@H](Oc2cc3c(O)cc(O)cc3[o+]c2-c2ccc(O)c(O)c2)[C@H](O)[C@@H](O)[C@@H]1O [cyanidin-3-glucoside]
- stability ([3]; pH 6.5, 1 h incubation): 88.7%
- stability ([3]; pH 7, 1 h incubation): 63.1%
- increase in uptake with decreasing pH from 7 to 6.5 [2]: 139%
- uptake reduction in the presence of glucose [2]: 67%
- Normalised Uptake (%) [2]: 0.159%
- Uptake (%) [2, 5]: 2.32 × 10^−2%
- Uptake (%) ([2]; strawberry anthocyanins at 20 µM, initial amount Cn 3.89, Pg 95.23, Pg-rham 29.59 µg/10 mL, listed as Cn): 6.54 × 10^−2%

Compound: OC[C@H]1O[C@@H](Oc2cc3c(O)cc(O)cc3[o+]c2-c2cc(O)c(O)c(O)c2)[C@H](O)[C@@H](O)[C@@H]1O [delphinidin-3-glucoside]
- uptake reduction in the presence of glucose [2]: 42%

The next lines start with the values.

- uptake reduction in the presence of glucose [2]: 69–72%
Compound: COc1cc(-c2[o+]c3cc(O)cc(O)c3cc2O[C@@H]2O[C@H](CO)[C@@H](O)[C@H](O)[C@H]2O)cc(O)c1O [petunidin-3-glucoside]

- stability ([3]; pH 6.5, 1 h incubation): 93.7%
- stability ([3]; pH 7, 1 h incubation): 67.7%
- blood concentration [4]: 400 nM
- plasma concentration [4]: 727 nM
- increase in uptake with decreasing pH from 7 to 6.5 [2]: 118%
- Normalised Uptake (%) [2]: 0.007%
- Uptake (%) [2, 5]: 2.88 × 10^−2%
- Uptake (%) [2, 6]: 6.95 × 10^−2%
Compound: OC[C@H]1O[C@@H](Oc2cc3c(O)cc(O)cc3[o+]c2-c2ccc(O)cc2)[C@H](O)[C@@H](O)[C@@H]1O [pelargonidin-3-glucoside]

- stability ([3]; pH 6.5, 1 h incubation): 91.8%
- stability ([3]; pH 7, 1 h incubation): 72.3%
- increase in uptake with decreasing pH from 7 to 6.5 [2]: 88%
- Normalised Uptake (%) [2]: 0.02%
- Uptake (%) [2, 5]: 2.66 × 10^−2%
- Uptake (%) [2, 6]: 5.93 × 10^−2%
Compound: pelargonidin-3-rhamnosylglucoside
